Legend:
Assay type in all cases: biochemical
[1] = biological target: T1, bovine pancreatic trypsin (Bos taurus, UniProt P00760); assay: In vitro enzyme assay for specificity: Trypsin; conditions: 30 min preincubation; substrate S-2222; read-out: Thypsin IC50 30 Min
T1 construct: Purified (3×-crystallized; TRL3) bovine pancreatic trypsin was obtained from Worthington Biochemical Corp; purchased Worthington Biochemical Corp. TRL3; host or cells: bovine pancreas
T1 sequence (P00760 24-246): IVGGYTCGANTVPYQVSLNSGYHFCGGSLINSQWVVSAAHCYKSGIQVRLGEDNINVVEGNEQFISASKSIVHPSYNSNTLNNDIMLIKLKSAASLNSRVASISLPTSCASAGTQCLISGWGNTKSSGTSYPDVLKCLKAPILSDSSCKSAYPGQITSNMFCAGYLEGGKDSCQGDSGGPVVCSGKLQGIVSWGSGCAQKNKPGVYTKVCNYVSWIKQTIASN
Procedure: (§1) The ability of compounds to act as a selective inhibitor of matriptase activity was assessed by determining the concentration of test-compound which inhibited the activity of matriptase by 50%, (IC50) as described in Example A, and comparing IC50 value for matriptase to that determined for all or some of the following serine proteases: thrombin, recombinant tissue plasminogen activator (rt-PA), plasmin, activated protein C, chymotrypsin, factor Xa and trypsin.
(§2) The buffer used for all assays was HBSA (10 mM HEPES, pH 7.5, 150 mM sodium chloride, 0.1% bovine serum albumin).
(§3) The assay for IC50 determinations was conducted by combining in appropriate wells of a Corning microtiter plate, 50 microliters of HBSA, 50 microliters of the test compound at a specified concentration (covering a broad concentration range) diluted in HBSA (or HBSA alone for V0 (uninhibited velocity) measurement), and 50 microliters of the enzyme diluted in HBSA. Following a 30 minute incubation at ambient temperature, 50 microliters of the substrate at the concentrations specified below were added to the wells, yielding a final total volume of 200 microliters. The initial velocity of chromogenic substrate hydrolysis was measured by the change in absorbance at 405 nm using a Thermo Max® Kinetic Microplate Reader over a 5 minute period in which less than 5% of the added substrate was utilized. The concentration of added inhibitor which caused a 50% decrease in the initial rate of hydrolysis was defined as the IC50 value.
Trypsin catalytic activity was determined using the chromogenic substrate, S-2222 (benzoyl-L-isoleucine-L-glutamic acid-[gamma-methyl ester]-L-arginine-p-nitroanilide), which was obtained from DiaPharma Group. […] Purified (3×-crystallized; TRL3) bovine pancreatic trypsin was obtained from Worthington Biochemical Corp. The enzyme was reconstituted in deionized water and diluted into HBSA prior to assay in which the final concentration was 0.5 nM.

human plasmin = biological target: T2, human plasmin (Homo sapiens, UniProt P00747); assay: In vitro enzyme assay for specificity: Plasmin; conditions: 30 min preincubation; substrate S-2366
T2 construct: Purified human plasmin was obtained from Enzyme Research Laboratories, Inc; purchased Enzyme Research Laboratories, Inc
T2 sequence (P00747 581-810 limits assumed): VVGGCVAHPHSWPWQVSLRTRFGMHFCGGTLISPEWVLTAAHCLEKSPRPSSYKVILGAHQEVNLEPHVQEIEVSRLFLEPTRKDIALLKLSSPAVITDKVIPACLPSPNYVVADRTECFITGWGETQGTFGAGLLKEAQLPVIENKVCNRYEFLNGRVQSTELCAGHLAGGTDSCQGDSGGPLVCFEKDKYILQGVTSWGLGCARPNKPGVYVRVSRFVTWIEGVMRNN
T2 sequence (P00747 97-580 partner limits assumed): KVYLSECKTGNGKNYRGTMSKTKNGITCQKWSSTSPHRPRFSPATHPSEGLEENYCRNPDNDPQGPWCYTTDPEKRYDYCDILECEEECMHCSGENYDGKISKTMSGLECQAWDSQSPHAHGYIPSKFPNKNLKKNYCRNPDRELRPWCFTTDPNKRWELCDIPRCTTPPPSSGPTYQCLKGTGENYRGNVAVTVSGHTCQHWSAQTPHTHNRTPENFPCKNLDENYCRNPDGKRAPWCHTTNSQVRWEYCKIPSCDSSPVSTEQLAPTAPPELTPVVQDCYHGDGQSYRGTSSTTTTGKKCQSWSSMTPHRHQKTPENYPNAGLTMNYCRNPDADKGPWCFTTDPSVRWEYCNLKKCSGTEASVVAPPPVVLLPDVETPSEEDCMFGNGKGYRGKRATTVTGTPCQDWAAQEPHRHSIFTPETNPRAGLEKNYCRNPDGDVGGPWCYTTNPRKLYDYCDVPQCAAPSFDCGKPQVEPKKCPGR
Procedure: as §1, §2, §3
Plasmin catalytic activity was determined using the chromogenic substrate, S-2366 [L-pyroglutamyl-L-prolyl-L-arginine-p-nitroaniline hydrochloride], which was obtained from DiaPharma group. The substrate was made up in deionized water followed by dilution in HBSA prior to the assay in which the final concentration was 300 micromolar (about 2.5-times Km). Purified human plasmin was obtained from Enzyme Research Laboratories, Inc. The enzyme was diluted into HBSA prior to assay in which the final concentration was 1.0 nM.

[2] = biological target: T3, recombinant serine protease domain of matriptase or MTSP1 (rMAP) (Homo sapiens, UniProt Q9Y5Y6); assay: Amidolytic assay for inhibition of serine protease activity of matriptase or MTSP1 (rMAP); conditions: 30 min preincubation of compound and rMAP; substrate S-2765
T3 construct: host or cells: Pichia pastoris SMD1168 / pPIC9K-MTSP1
T3 sequence (Q9Y5Y6 615-855): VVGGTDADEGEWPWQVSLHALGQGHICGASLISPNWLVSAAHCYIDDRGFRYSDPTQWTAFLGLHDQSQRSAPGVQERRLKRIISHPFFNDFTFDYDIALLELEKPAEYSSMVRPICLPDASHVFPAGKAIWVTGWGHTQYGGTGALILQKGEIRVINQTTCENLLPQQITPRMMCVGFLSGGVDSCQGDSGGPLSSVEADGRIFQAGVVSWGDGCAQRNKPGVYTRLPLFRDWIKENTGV
Procedure: The ability of the compounds of the present invention to act as inhibitors of rMAP catalytic activity was assessed by determining the inhibitor-induced inhibition of amidolytic activity by the MAP, as measured by IC50 values.
The assay buffer was HBSA (10 mM Hepes, 150 mM sodium chloride, pH 7.4, 0.1% bovine serum albumin). All reagents were from Sigma Chemical Co. (St. Louis, Mo.), unless otherwise indicated.
Two IC50 assays (a) one at either 30-minutes or 60-minutes (a 30-minute or a 60-minute preincubation of test compound and enzyme) and (b) one at 0-minutes (no preincubation of test compound and enzyme) were conducted. […] Following either a 30-minute or a 60-minute incubation at ambient temperature, the assay was initiated by the addition of 50 microliters of the substrate S-2765 (N-α-Benzyloxycarbonyl-D-arginyl-L-glycyl-L-arginine-p-nitroaniline dihydrochloride; DiaPharma Group, Inc.; Franklin, Ohio) to each well, yielding a final assay volume of 200 microliters and a final substrate concentration of 100 μM (about 4-times Km). Before addition to the assay mixture, S-2765 was reconstituted in deionized water and diluted in HBSA. For the IC50 assay at 0 minutes; the same reagents were combined: 50 microliters of HBSA, 50 microliters of the test compound, diluted (covering the identical concentration range) in HBSA (or HBSA alone for uninhibited velocity measurement), and 50 microliters of the substrate S-2765. The assay was initiated by the addition of 50 microliters of rMAP. The final concentrations of all components were identical in both IC50 assays (at 30- or 60- and 0-minute).
The initial velocity of chromogenic substrate hydrolysis was measured in both assays by the change of absorbance at 405 nm using a Thermo Max® Kinetic Microplate Reader (Molecular Devices) over a 5 minute period, in which less than 5% of the added substrate was utilized. The concentration of added inhibitor, which caused a 50% decrease in the initial rate of hydrolysis was defined as the respective IC50 value in each of the two assays (30- or 60-minutes and 0-minute).

Factor Xa = biological target: T4, Factor Xa (Homo sapiens, UniProt P00742); assay: In vitro enzyme assay for specificity: Factor Xa; conditions: 30 min preincubation; substrate S-2765; read-out: FXa IC50 30 Min
T4 construct: purchased Enzyme Research Laboratories, Inc. (South Bend, Ind.)
T4 sequence (P00742 235-488 limits assumed): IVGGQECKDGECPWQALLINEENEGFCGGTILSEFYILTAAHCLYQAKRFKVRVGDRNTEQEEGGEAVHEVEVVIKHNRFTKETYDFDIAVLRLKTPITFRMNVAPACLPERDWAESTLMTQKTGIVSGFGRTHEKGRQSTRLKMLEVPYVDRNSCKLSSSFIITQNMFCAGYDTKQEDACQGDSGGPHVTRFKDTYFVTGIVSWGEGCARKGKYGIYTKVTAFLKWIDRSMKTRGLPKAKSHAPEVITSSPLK
T4 sequence (P00742 41-179 partner limits assumed): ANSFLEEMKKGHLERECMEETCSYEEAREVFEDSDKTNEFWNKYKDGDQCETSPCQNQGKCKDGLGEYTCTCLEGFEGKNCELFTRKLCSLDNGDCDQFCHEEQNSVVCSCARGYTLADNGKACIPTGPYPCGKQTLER
Procedure: as §1, §2, §3
Factor Xa catalytic activity was determined using the chromogenic substrate S-2765 (N-benzyloxycarbonyl-D-arginine-L-glycine-L-arginine-p-nitro aniline), obtained from DiaPharma Group (Franklin, Ohio). All substrates were reconstituted in deionized water prior to use. […] Purified human Factor X was obtained from Enzyme Research Laboratories, Inc. (South Bend, Ind.) and Factor Xa (FXa) was activated and prepared from it as described [Bock, P. E., Craig, P. A., Olson, S. T., and Singh, P. Arch. Biochem. Biophys. 273:375–388 (1989)]. The enzyme was diluted into HBSA prior to assay in which the final concentration was 0.25 nM.

human α-thrombin = biological target: T5, human α-thrombin (Homo sapiens, UniProt P00734); assay: In vitro enzyme assay for specificity: Thrombin (fIIa); conditions: 30 min preincubation; substrate Pefachrome t-PA
T5 construct: Purified human α-thrombin was obtained from Enzyme Research Laboratories, Inc; purchased Enzyme Research Laboratories, Inc
Procedure: as §1, §2, §3
Enzyme activity was determined using the chromogenic substrate, Pefachrome t-PA (CH3SO2-D-hexahydrotyrosine-glycyl-L-Arginine-p-nitroaniline, obtained from Pentapharm Ltd.). The substrate was reconstituted in deionized water prior to use. Purified human α-thrombin was obtained from Enzyme Research Laboratories, Inc. The buffer used for all assays was HBSA (10 mM HEPES, pH 7.5, 150 mM sodium chloride, 0.1% bovine serum albumin).
The initial velocity of Pefachrome t-PA hydrolysis was measured by the change in absorbance at 405 nm using a Thermo Max® Kinetic Microplate Reader over a 5 minute period in which less than 5% of the added substrate was utilized. The concentration of added inhibitor which caused a 50% decrease in the initial rate of hydrolysis was defined as the IC50 value.

Row | SMILES | IC50 [1] [nM] | IC50 (human plasmin) [nM] | IC50 [2] [nM] | IC50 (Factor Xa) [nM] | IC50 (human α-thrombin) [nM]
1 | CC(C)COC(=O)N[C@](CCC(=O)O)(Cc1cccc(C(=N)N)c1)C(=O)NCC(=O)N[C@H](C=O)CCCNC(=N)N [L] | > 2500 | > 2500 | < 100 | > 2500 | > 2500
2 | N=C(N)NCCC[C@@H](C=O)NC(=O)CNC(=O)[C@@](CCC(=O)O)(Cc1cccc(C(=N)N)c1)NC(=O)Oc1ccccc1 [M] | 250 to 500 | > 2500 | < 100 | 500 to 2500 | > 2500
3 | CCNC(=O)N[C@](CCC(=O)O)(Cc1cccc(C(=N)N)c1)C(=O)NCC(=O)N[C@H](C=O)CCCNC(=N)N [H] | > 2500 | > 2500 | < 100 | > 2500 | > 2500
4 | COC(=O)CCC(N)(Cc1cccc(C(=N)N)c1)C(=O)NCC(=O)NC(C=O)CCCNC(=N)N (stereo not drawn) [C] | 500 to 2500 | 500 to 2500 | < 100 | > 2500 | > 2500
5 | COC(=O)N[C@](CCC(=O)O)(Cc1cccc(C)c1)C(=O)N[C@@H](C)C(=O)N[C@H](C=O)CCCNC(=N)N [G] | < 100 | 500 to 2500 | < 100 | > 2500 | > 2500
6 | N=C(N)NCCC[C@@H](C=O)NC(=O)CNC(=O)[C@@](N)(CCC(=O)O)Cc1cccc(C(=N)N)c1 [A] | 250 to 500 | 500 to 2500 | < 100 | > 2500 | > 2500
7 | CC(=O)N[C@](CCC(=O)O)(Cc1cccc(C(=N)N)c1)C(=O)NCC(=O)N[C@H](C=O)CCCNC(=N)N [E] | > 2500 | > 2500 | < 100 | > 2500 | > 2500
8 | COC(=O)N[C@](CCC(=O)O)(Cc1cccc(C(=N)N)c1)C(=O)NCC(=O)N[C@H](C=O)CCCNC(=N)N [D] | > 2500 | > 2500 | < 100 | > 2500 | > 2500
9 | COC(=O)N[C@](CCC(=O)O)(Cc1cccc(C(=N)N)c1)C(=O)N[C@@H](C)C(=O)N[C@H](C=O)CCCNC(=N)N [F] | 500 to 2500 | 500 to 2500 | < 100 | > 2500 | > 2500
10 | COC(=O)N[C@](CCC(=O)O)(Cc1ccccc1)C(=O)NCC(=O)N[C@H](C=O)CCCNC(=N)N [I] | 500 to 2500 | > 2500 | < 100 | 500 to 2500 | > 2500
11 | CCOC(=O)N[C@](CCC(=O)O)(Cc1cccc(C(=N)N)c1)C(=O)NCC(=O)N[C@H](C=O)CCCNC(=N)N [K] | > 2500 | > 2500 | < 100 | > 2500 | > 2500
12 | N=C(N)NCCCC(C=O)NC(=O)CNC(=O)C(CCC(=O)O)(Cc1cccc(C(=N)N)c1)NS(=O)(=O)Cc1ccccc1 (stereo not drawn) [B] | > 2500 | > 2500 | < 100 | > 2500 | 500 to 2500

Reference: patent US7157596B2, “Inhibitors of serine protease activity of matriptase or MTSP1” (Dendreon Corporation, priority 2000, dated 2007)
